ChEMBL document CHEMBL5726853, “3-acetylenyl-pyrazole-pyrimidine derivative, and preparation method therefor and uses thereof” (2019)

Biological target: Proto-oncogene tyrosine-protein kinase Src (Homo sapiens, UniProt P12931)
Sequence (P12931 2-536 limits assumed): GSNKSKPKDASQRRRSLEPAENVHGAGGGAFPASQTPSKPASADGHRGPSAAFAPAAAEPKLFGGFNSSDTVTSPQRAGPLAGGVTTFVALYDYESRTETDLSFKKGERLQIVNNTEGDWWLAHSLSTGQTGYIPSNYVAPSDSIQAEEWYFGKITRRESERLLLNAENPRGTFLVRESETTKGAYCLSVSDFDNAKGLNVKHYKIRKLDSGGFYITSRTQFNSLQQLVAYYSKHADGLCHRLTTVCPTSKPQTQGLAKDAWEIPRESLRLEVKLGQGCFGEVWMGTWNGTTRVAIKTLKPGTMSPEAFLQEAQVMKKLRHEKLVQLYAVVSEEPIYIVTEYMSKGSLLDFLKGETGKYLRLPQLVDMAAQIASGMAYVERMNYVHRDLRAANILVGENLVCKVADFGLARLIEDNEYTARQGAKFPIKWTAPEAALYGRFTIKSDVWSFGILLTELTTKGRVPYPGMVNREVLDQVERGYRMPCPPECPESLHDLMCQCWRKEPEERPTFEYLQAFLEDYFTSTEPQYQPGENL

`Cc1ccc(NC(=O)c2ccc(CN3CCN(C)CC3)cc2)cc1C#Cc1nn(C(C)C)c2ncnc(N)c12` gave an IC50 of 4 nM.
